Test results reported in ChEMBL document CHEMBL1201862, “PubChem BioAssay data set” (2004).
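Values below derive from 48-hour exposures of cells grown in 96-well plates, with endpoints linearly interpolated between the two concentrations bracketing the appropriate inhibition level. GI50 = concentration required for 50% inhibition of growth.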 The source made the active and inactive calls. No stated cut-off is given here; in the data, active = GI50 up to about 1.1 µM and inactive = higher.

Key:
Assay in all cases: NCI-60 cell line screen, 48 h
SF-539 = system: SF-539
EKVX = system: EKVX
UO-31 = system: UO-31
MOLT-4 = system: MOLT-4
SNB-19 = system: SNB-19
HCC 2998 = system: HCC 2998
UACC-62 = system: UACC-62
KM12 = system: KM12
NCI-H23 = system: NCI-H23
HOP-92 = system: HOP-92
SK-MEL-5 = system: SK-MEL-5
M14 = system: M14
NCI/ADR-RES = system: NCI/ADR-RES
CAKI-1 = system: CAKI-1
DU-145 = system: DU-145
786-0 = system: 786-0
NCI-H522 = system: NCI-H522
HOP-62 = system: HOP-62
SNB-75 = system: SNB-75
HCT-116 = system: HCT-116

Measured: GI50

CS(=O)(=O)Nc1ccc(Nc2c3ccccc3nc3ccccc23)cc1
inactive: SF-539 3.4 µM | EKVX 4.55 µM | UO-31 2.23 µM | SNB-19 2.03 µM | HCC 2998 4.25 µM | UACC-62 1.34 µM | KM12 3.13 µM | NCI-H23 4.06 µM | HOP-92 4.78 µM | SK-MEL-5 1.71 µM | M14 3.37 µM | NCI/ADR-RES 7.28 µM | 786-0 3.1 µM | NCI-H522 2.06 µM | SNB-75 3.46 µM | HCT-116 1.83 µM
active: MOLT-4 0.0873 µM | CAKI-1 0.491 µM | DU-145 0.355 µM | HOP-62 1.08 µM

Cc1c(O)c(OC2OC(CO)C(O)C(O)C2O)cc2c1CC[C@@H]1C2(C)C(=O)C[C@]2(C)[C@@H]([C@@](C)(O)C(O)CCC(C)(C)O)[C@H](O)C[C@@]12C (stereo not given in full)
inactive: SF-539 > 100 µM | EKVX > 100 µM | UO-31 > 100 µM | MOLT-4 > 100 µM | SNB-19 > 100 µM | HCC 2998 > 100 µM | UACC-62 > 100 µM | KM12 > 100 µM | NCI-H23 > 100 µM | HOP-92 > 100 µM | SK-MEL-5 > 100 µM | M14 > 100 µM | NCI/ADR-RES > 100 µM | CAKI-1 > 100 µM | DU-145 > 100 µM | 786-0 > 100 µM | NCI-H522 > 100 µM | HOP-62 > 100 µM | SNB-75 > 100 µM | HCT-116 > 100 µM

N#Cc1c(-c2ccc([N+](=O)[O-])cc2)cc(-c2ccc(Nc3ccnc4cc(Cl)ccc34)cc2)nc1N
inactive: SF-539 31.1 µM | EKVX 16.9 µM | UO-31 26.5 µM | MOLT-4 1.81 µM | SNB-19 25.2 µM | HCC 2998 11.4 µM | UACC-62 26.7 µM | KM12 2.38 µM | NCI-H23 25.2 µM | HOP-92 29.7 µM | SK-MEL-5 25.9 µM | M14 21.1 µM | NCI/ADR-RES 4.12 µM | CAKI-1 20.9 µM | DU-145 11 µM | NCI-H522 3.85 µM | HOP-62 9.46 µM | SNB-75 11.4 µM | HCT-116 2.3 µM
active: 786-0 0.989 µM

c1ccc2c(c1)N=c1ccccc1=P21c2ccccc2Nc2ccccc21
active: SF-539 0.619 µM | MOLT-4 0.3 µM | SNB-19 0.325 µM | HCC 2998 0.598 µM | UACC-62 0.611 µM | KM12 0.132 µM | NCI-H23 0.304 µM | HOP-92 0.332 µM | SK-MEL-5 0.188 µM | M14 0.518 µM | DU-145 0.388 µM | 786-0 1.03 µM | NCI-H522 0.216 µM | HOP-62 0.908 µM | SNB-75 0.246 µM | HCT-116 0.242 µM
inactive: EKVX 5.04 µM | UO-31 7.1 µM | NCI/ADR-RES 76 µM | CAKI-1 2.4 µM

O=C1N[C@H]2c3c(Cl)sc(Cl)c3C(=O)[C@H]2O1
inactive: SF-539 9.68 µM | EKVX 12.3 µM | UO-31 19.1 µM | MOLT-4 2.01 µM | SNB-19 20.6 µM | HCC 2998 5.46 µM | UACC-62 19.1 µM | KM12 39.1 µM | NCI-H23 10.5 µM | HOP-92 18.5 µM | SK-MEL-5 24 µM | M14 9.82 µM | NCI/ADR-RES 15.5 µM | CAKI-1 17.8 µM | DU-145 23.4 µM | 786-0 20.2 µM | NCI-H522 1.68 µM | HOP-62 20.9 µM | SNB-75 19.1 µM | HCT-116 3.64 µM

C=C1CC2(OC1=O)c1ccccc1CCc1ccccc12
inactive: SF-539 2.13 µM | EKVX 7.38 µM | UO-31 9.82 µM | MOLT-4 2.43 µM | SNB-19 7.62 µM | HCC 2998 2.54 µM | UACC-62 6.4 µM | KM12 3.61 µM | NCI-H23 9.95 µM | HOP-92 1.72 µM | SK-MEL-5 13.1 µM | M14 1.97 µM | NCI/ADR-RES 1.63 µM | CAKI-1 1.75 µM | DU-145 18.7 µM | 786-0 1.75 µM | NCI-H522 1.71 µM | HOP-62 26.1 µM | SNB-75 5.69 µM | HCT-116 1.44 µM
